Article PMC11923649, “Novel C-2 Aromatic Heterocycle-Substituted Triterpenoids Inhibit Hedgehog Signaling in GLI1 Overexpression Cancer Cells” (ACS Omega, 2025)

How the values were obtained:
MRC-5 lung fibroblasts = assay: MTS cytotoxicity assay, 72 h, MRC-5 fibroblasts; assay type: cell-based, human; conditions: Homo sapiens, MRC5, 72 h, normal fibroblasts
Description: (§1) Based on the preliminary results and tests of a larger library of known triterpenoids, a small set of 2-substituted lupane and 18α-oleanane derivatives was designed and synthesized. As the first step, the cytotoxic activity of the synthesized derivatives was assessed using an MTS assay following 72 h of treatment (Table 1). Selected cell lines A549 (lung adenocarcinoma) and DU-145 (prostate cancer) are both dependent on Hh signaling. In addition, K562 (chronic myelogenous leukemia) was included as a cell line sensitive to Hh inhibitors[32] and a type of hematological malignancy with active Hh signaling.[33] MRC-5 lung fibroblasts and BJ human skin fibroblasts cell lines were used to evaluate the toxicity against nontumor cells. Compounds were also tested using the standard panel of other cancer cell lines, as described in our earlier work (Table 1).[27]
(§2) The human prostate tumor-derived cell line DU145 was obtained from ATCC (American Type Culture Collection) and cultured in RPMI 1640 (Roswell Park Memorial Institute) medium supplemented with 10% (v/v) fetal bovine serum (FBS). Human prostate tumor-derived LNCaP cells were obtained from ATCC and cultured in RPMI 1640 medium supplemented with 10% FBS. The human nonsmall cell lung carcinoma (NSCLC)-derived cell line HOP-62 was obtained from the DSMZ (German Collection of Microorganisms and Cell Cultures) and cultured in RPMI 1640 medium supplemented with 10% FBS. The human nonsmall cell lung carcinoma-derived cell line NCI-H322 was obtained from ECACC (European Collection of Authenticated Cell Cultures) and cultured in RPMI 1640 medium supplemented with 10% FBS. The human nonsmall cell lung carcinoma-derived cell line NCI-H522 was obtained from ATCC and cultured in RPMI 1640 medium supplemented with 10% FBS. The human lung tumor-derived cell line A549 was obtained from ATCC and cultured in Dulbecco’s Modified Eagle’s Medium (DMEM) supplemented with 10% FBS. The human medulloblastoma-derived cell line DAOY was obtained from ATCC and cultured in Eagle’s Minimum Essential Medium (EMEM) supplemented with 10% FBS. The human glioblastoma-derived cell line T98G was obtained from ATCC and cultured in EMEM medium supplemented with 10% FBS, 1 mmol/L sodium pyruvate, and 1 mmol/L nonessential amino acid mixture. All the above-mentioned cell lines were cultured at 37 °C in an atmosphere of 5% CO2 with 95% humidity. The cytotoxicity MTS assays were performed using MTS (3-(4,5-dimethylthiazol-2-yl)-5-(3-carboxymethoxyphenyl)-2-(4-sulfophenyl)-2H-tetrazolium) tetrazolium salt. Briefly, cells were seeded in a 384-well transparent plate in a volume of 25 μL and a concentration of 15,000 cells/mL (DU145, LNCaP, HOP-62, A549, DAOY, T98G) or 30,000 cells/mL (NCI-H322, NCI-H522). The next day, cells were exposed to compounds in a concentration range of 50–0.0975 μmol/L (dilution factor 2) and cultured in the presence of the compounds for 72 h. After 72 h, 5 μL of MTS/phenazine methosulfate solution was pipetted into each well and incubation continued for 1–4 h. Finally, the absorbance at 490 nm was measured using an EnVision multifunctional modular reader (PerkinElmer). The IC50 value was determined using Dotmatics software.

[1] = test system: BJ human skin fibroblasts; assay: MTS cytotoxicity assay, 72 h, BJ fibroblasts; assay type: cell-based; conditions: Homo sapiens, Skin fibroblast, normal fibroblasts
Description: as §1, §2

[2] = test system: A549 (lung adenocarcinoma); assay: MTS cytotoxicity assay, 72 h, A549; assay type: cell-based; conditions: Homo sapiens, A549, 72 h
Description: as §1, §2

HCT116 p53–/– = assay: MTS cytotoxicity assay, 72 h, HCT116 p53–/–; assay type: cell-based; conditions: Homo sapiens, HCT-116, 72 h
Description: as §1, §2

HCT 116 = assay: MTS cytotoxicity assay, 72 h, HCT 116; assay type: cell-based; conditions: Homo sapiens, HCT-116, 72 h
Description: as §1, §2

U2OS = assay: MTS cytotoxicity assay, 72 h, U2OS; assay type: cell-based; conditions: Homo sapiens
Description: as §1, §2

K562-TAX = assay: MTS cytotoxicity assay, 72 h, K562-TAX; assay type: cell-based
Description: as §1, §2

DU-145 (prostate cancer) = assay: MTS cytotoxicity assay, 72 h, DU-145; assay type: cell-based, human; conditions: Homo sapiens, DU-145, 72 h
Description: as §1, §2

CEM-DNR = assay: MTS cytotoxicity assay, 72 h, CEM-DNR; assay type: cell-based; conditions: Homo sapiens
Description: as §1, with “1).[27] […]” for “1).[27]”

CCRF-CEM = assay: MTS cytotoxicity assay, 72 h, CCRF-CEM; assay type: cell-based; conditions: for IC50: Homo sapiens, CCRF-CEM, 72 h, MTS
Description: as §1, §2

[3] = test system: K562 (chronic myelogenous leukemia); assay: MTS cytotoxicity assay, 72 h, K562; assay type: cell-based; conditions: Homo sapiens
Description: as §1, §2

[4] = CCRF-CEM vs average of BJ and MRC-5, full Table S1
[5] = IC50 of CCRF-CEM line vs average of both fibroblasts (BJ and MRC-5), Table 1

SMILES | IC50 (MRC-5 lung fibroblasts; full Table S1) [µM] | IC50 ([1]; full Table S1) [µM] | IC50 ([2]; full Table S1) [µM] | IC50 (HCT116 p53–/–; full Table S1) [µM] | IC50 (HCT 116; full Table S1) [µM] | IC50 (U2OS; full Table S1) [µM] | IC50 (K562-TAX; full Table S1) [µM] | IC50 (DU-145 (prostate cancer); full Table S1) [µM] | IC50 (CEM-DNR; full Table S1) [µM] | SI (selectivity index) (CCRF-CEM; [4]) | IC50 (CCRF-CEM; full Table S1) [µM] | IC50 ([3]; full Table S1) [µM] | IC50 (MRC-5 lung fibroblasts; Table 1) [µM] | IC50 ([1]; Table 1) [µM] | IC50 ([2]; Table 1) [µM] | IC50 (HCT116 p53–/–; Table 1) [µM] | IC50 (HCT 116; Table 1) [µM] | IC50 (U2OS; Table 1) [µM] | IC50 (K562-TAX; Table 1) [µM] | IC50 (DU-145 (prostate cancer); Table 1) [µM] | also measured
C=C(C)[C@@H]1CC[C@]2(C(=O)OCc3ccccc3)CC[C@]3(C)C(CCC4[C@@]5(C)C=C(c6cccs6)C(=O)C(C)(C)C5CC[C@]43C)C12 (some centres unmarked) [Compound 10c, Benzyl 2-(2-Thiophenyl)-3-oxolupa-1,20(29)-dien-28-oate] | > 50 | > 50 | > 50 | > 50 | > 50 | > 50 | > 50 | > 50 | > 50 | > 1.0 | > 50 | > 50 |  |  |  |  |  |  |  |  | 
C=C(C)[C@@H]1CC[C@]2(C(=O)O)CC[C@]3(C)C(CCC4[C@@]5(C)C=C(c6ccc7cn[nH]c7c6)C(=O)C(C)(C)C5CC[C@]43C)C12 (some centres unmarked) [Compound 11n, 2-(Indazol-6-yl)-3-oxolupa-1,20(29)-dien-28-oic acid] | 26.5 | 35.1 | 15.1 | 16.8 | 14.9 | 20.5 | 12.1 |  | 21.9 |  |  | 22.3 | 27 | 35 | 15 | 17 | 15 | 21 | 12 | 8.3 | IC50 (CEM-DNR; Table 1): 22 µM; IC50 (CCRF-CEM; Table 1): 4.9 µM; SI (selectivity index) (CCRF-CEM; [5]): 6.3; IC50 ([3]; Table 1): 22 µM
CC1(C)C(=O)C(c2cccnc2)=C[C@@]2(C)C1CC[C@]1(C)C2CCC2C3[C@H]4OC[C@@]3(CCC4(C)C)CC[C@]21C (stereo partly drawn) [Compound 4g, 2-(Pyridin-3-yl)-19β,28-epoxyolean-1-en-3-one] |  |  |  |  |  |  |  | 43.3 | 15.5 |  | 25.4 |  | > 50 | > 50 | > 50 | > 50 | > 50 | > 50 | 19 | 43 | IC50 (CEM-DNR; Table 1): 16 µM; IC50 (CCRF-CEM; Table 1): 25 µM; SI (selectivity index) (CCRF-CEM; [5]): >2.0; IC50 ([3]; Table 1): > 50 µM
C=C(C)[C@@H]1CC[C@]2(C(=O)OCc3ccccc3)CC[C@]3(C)C(CCC4[C@@]5(C)C=C(c6ccc7c(c6)OCCO7)C(=O)C(C)(C)C5CC[C@]43C)C12 (some centres unmarked) [Compound 10j, Benzyl 2-(1,4-Benzodioxan)-3-oxolupa-1,20(29)-dien-28-oate] | > 50 | > 50 | > 50 | > 50 | > 50 | > 50 | > 50 | > 50 | > 50 | > 1.0 | > 50 | > 50 |  |  |  |  |  |  |  |  | 
CC1(C)C(=O)C(c2cccs2)=C[C@@]2(C)C1CC[C@]1(C)C2CCC2C3[C@H]4OC[C@@]3(CCC4(C)C)CC[C@]21C (stereo partly drawn) [Compound 4c, 2-(Thiophene-2-yl)-19β,28-epoxyolean-1-en-3-one] | > 50 | > 50 | > 50 | > 50 | > 50 | > 50 | > 50 | > 50 | > 50 | > 1.0 | > 50 | > 50 |  |  |  |  |  |  |  |  | 
C=C(C)[C@@H]1CC[C@]2(C(=O)OCc3ccccc3)CC[C@]3(C)C(CCC4[C@@]5(C)C=C(c6ccncc6)C(=O)C(C)(C)C5CC[C@]43C)C12 (some centres unmarked) [Compound 10h, Benzyl 2-(4-Pyridinyl)-3-oxolupa-1,20(29)-dien-28-oate] | > 50 | > 50 | > 50 | > 50 | > 50 | > 50 | > 50 | > 50 | > 50 | > 1.0 | > 50 | > 50 |  |  |  |  |  |  |  |  | 
C=C(C)[C@@H]1CC[C@]2(C(=O)OCc3ccccc3)CC[C@]3(C)C(CCC4[C@@]5(C)C=C(c6ccc7[nH]ccc7c6)C(=O)C(C)(C)C5CC[C@]43C)C12 (some centres unmarked) [Compound 10m, Benzyl 2-(Indol-5-yl)-3-oxolupa-1,20(29)-dien-28-oate] | > 50 | > 50 | > 50 | > 50 | > 50 | > 50 | > 50 | > 50 | > 50 | > 1.0 | > 50 | > 50 |  |  |  |  |  |  |  |  | 
CC1(C)C(=O)C(c2ccc3[nH]ccc3c2)=C[C@@]2(C)C1CC[C@]1(C)C2CCC2C3[C@H]4OC[C@@]3(CCC4(C)C)CC[C@]21C (stereo partly drawn) [Compound 4m, 2-(Indol-5-yl)-19β,28-epoxyolean-1-en-3-one] |  |  |  |  |  |  |  | 25.8 |  |  | 26.1 |  | > 50 | > 50 | > 50 | > 50 | > 50 | > 50 | > 50 | 26 | IC50 (CEM-DNR; Table 1): > 50 µM; IC50 (CCRF-CEM; Table 1): 26 µM; SI (selectivity index) (CCRF-CEM; [5]): >1.9; IC50 ([3]; Table 1): > 50 µM
